Source: ChEMBL document CHEMBL1150746, “Native American food and medicinal plants, 8. Water-soluble constituents of Lomatium dissectum” (1988)

Test system: Xanthomonas campestris
Test: Antimicrobial activity against Xanthomonas campestris at 0.5 mg/disk
Format: functional

O=c1cc(-c2ccc(O)c(O)c2)oc2cc(O[C@@H]3O[C@H](CO)[C@@H](O)[C@H](O)[C@H]3O)cc(O)c12 [GALUTEOLIN]
inhibition zone (IZ): 3 mm
